Measurements published in patent US10035775B2, “Compositions for the treatment of fibrosis and fibrosis-related conditions” (VECTUS BIOSYSTEMS LIMITED, priority 2015, dated 2018).

What was measured:
SHR [1] = experiment: Masson's tri-chrome stained sections of portal tracts (liver tissue architecture); assay type: in vivo, rat; conditions: treated rats versus control, FIG. 18
Source text: (§1) Fourteen week old SHR on a high fat diet (Glen Forrest Stockfeeders) were randomly assigned to test compound drinking solution (500 pmol/kg/min test compound in 10% ethanol in deionised distilled water) or control drinking solution (10% ethanol in deionised distilled water). After 4 weeks, rats were anaesthetised and blood samples were taken for analysis of plasma aminotransferase (AST) levels and livers were harvested. To quantitate tissue fibrosis and/or fat content, tissue slices≤3 mm thick were fixed in 10% buffered formalin for 24 hours, processed and embedded in paraffin. Three micron transverse sections were stained using Masson's trichrome stain. A minimum of 20 random fields at magnification×20 from transverse sections (5 at each of 2 levels) were digitized and the degree of fibrosis determined as a percent of field area of each digitized image using Image-Pro Plus V.7 (Media Cybernetics, Bethesda, Md., USA) then averaged to determine the level of fibrosis and/or fat content for each rat.

SHR [2] = experiment: Hepatic fibrosis in SHR on high fat diet; assay type: in vivo, rat; conditions: 10% ethanol drinking solution, 500 pmol/kg/min for 6 weeks, compared to controls, FIG. 17
Description: as §1, with “After 4 weeks, rats were anaesthetised and blood samples were taken for analysis of plasma aminotransferase (AST) levels and livers were harvested.” left out

[3] = system: bovine aortic endothelial cells; experiment: xCELLigence cellular impedance (cell index) in bovine aortic endothelial cells; assay type: cell-based; conditions: 62.5 μM, 125 μM or 250 μM, measured for 3 hours, FIG. 13
Source text: The xCELLigence SP system (Roche) was used to measure changes in cellular impedance (cell index) following the treatment of bovine aortic endothelial cells (European Collection of Cell Cultures) with test compound. In this in vitro cell based experimental system a negative impedance profile correlates with blood pressure reduction in rats—a decrease in impedance is associated with vasodilatation and an increase in impedance is associated with vasoconstriction (Stallaert W, Dorn J F, van der Westhuizen E, Audet M & Bouvier M. Impedance responses reveal β-adrenergic signaling […] and allow classification of ligands with distinct signalling profiles PLoS ONE 2012; 7(1):e29420, doi:10.1371/journal.pone.0029420).
Briefly, 50 μl of cell culture medium (DMEM low glucose supplemented with 15% fetal bovine serum at 37° C.) was added to each well of an E-Plate 96 (Roche), and the background impedance in each well was measured. 50 μl of bovine aortic endothelial cell suspension (10,000 cells/well) was then added to the appropriate wells of the E-Plate 96. Cell index was monitored for each well of the E-Plate 96 in RTCA SP Station within the cell culture incubator. After overnight incubation for 16-20 hours at 5% CO2 and 95% humidity, 100 μl of test compound solution (test compounds were prepared in DMSO and diluted with cell culture medium to a concentration of 62.5 μM, 125 μM or 250 μM of test compound with a final DMSO concentration of 0.25%) was added to the appropriate wells of the E-Plate 96 and cell index values were measured immediately following compound treatment every 20 seconds for 3 hours. Cell index value is baseline-corrected by subtracting the cell index of vehicle-treated cells and normalized by dividing by the cell index at the time point immediately before compound addition. Baseline normalized cell index as a function of time is plotted using Roche RTCA software.

SHR [4] = experiment: Fat accumulation in the liver in SHR on high fat diet; assay type: in vivo, rat; conditions: 500 pmol/kg/min for 4 weeks, compared to 18 week controls, FIG. 20, p<0.05
Source text: as §1

SHR [5] = experiment: Plasma aminotransferase (AST) levels in SHR on high fat diet; assay type: in vivo, rat; conditions: 10% ethanol drinking solution, compared to controls, FIG. 21, p<0.025
Description: Fourteen week old SHR on a high fat diet (Glen Forrest Stockfeeders) were randomly assigned to test compound drinking solution (500 pmol/kg/min test compound in 10% ethanol in deionised distilled water) or control drinking solution (10% ethanol in deionised distilled water). After 4 weeks, rats were anaesthetised and blood samples were taken for analysis of plasma aminotransferase (AST) levels and livers were harvested. Plasma AST levels were measured using a RefloVET Plus (Roche) machine using consumable strips with magnetic assay identifiers recognized by the machine. A calibration standard was used in the machine prior to each use and the device was operated according to the manufacturer's instructions. Results are presented as international units per liter (IU/L).

[6] = system: rat (NRK-52E) renal proximal tubule cells; experiment: Cisplatin induced cell death, rat renal proximal tubule cells (WST-8/CCK-8); assay type: cell-based; conditions: rat renal proximal tubular cells; cisplatin 12.5 μg/ml; 32 μM or 63 μM of compound; 24 hours; FIG. 14
Description: (§2) Human (HPCT-wt-05) and rat (NRK-52E) renal proximal tubule cells grown in (Keratinocyte Medium II+Keratinocyte Growth Supplement+5 ng/ml human recombinant epidermal growth factor+5% FBS+2 mM glutamine or DMEM+10% FBS+1% NEAA+2 mM glutamine respectively) were placed in 96 well plates at 10,000 cells/well and incubated at 37° C. with 5% CO2 overnight. Test compounds at concentrations of 32 μM or 63 μM were incubated with human or rat renal proximal tubule cells for 2 hours at 37° C. and 5% CO2. Cis-diamminedichloroplatinum[…] (cisplatin) was then added at a concentration of 5 μg/ml for human cells and 12.5 μg/ml for rat cells. Each cell population was then incubated for 24 hours at 37° C. with 5% CO2. Test compound A32 was maintained at its original concentrations. To assay the cytotoxic effects of cisplatin on the human and rat renal proximal tubule cells a highly water-soluble tetrazolium salt, WST-8, which is reduced by dehydrogenases in cells to produce formazan, a water-soluble, yellow-coloured indicator dye was used following the manufacturer's instructions (specifically the Cell Count Kit-8 (CCK-8) assay from Sigma). Plate absorbance of the WST-8 (CCK-8) reagent was then measured at 450 nm using a Thermo Scientific Multiskan EX plate reader.

SHR [7] = experiment: Interstitial fibrosis in the kidney in SHR on 2.2% salt diet; assay type: in vivo, rat; conditions: 5% ethanol drinking solution, 500 pmol/kg/min for 4 weeks, compared to 18 week controls, FIG. 15
Source text: (§3) Fourteen week old SHR on a 2.2% salt diet (Glen Forrest Stockfeeders) were randomly assigned to zero time control, test compound treatment (500 pmol/kg/min) in the drinking solution or control drinking solution (5% ethanol in deionised distilled water (n=5 each group). The rats assigned to zero time control group (14 weeks old rats) were anaesthetised and had their kidneys and heart harvested while rats assigned to control and test compound treatment were weighed twice weekly and had their drinking solution intake monitored to allow adjustment of the test compound concentration in the drinking solution to maintain a constant dose over the 4-week study period (18 weeks old rats). At the completion of the study period, rats were anaesthetised and had their kidneys and heart harvested. To quantitate tissue fibrosis and/or fat content, tissue slices≤3 mm thick were fixed in 10% buffered formalin for 24 hours, processed and embedded in paraffin. Three micron transverse sections were stained using Masson's trichrome stain. A minimum of 20 random fields at magnification×20 from transverse sections (5 at each of 2 levels) were digitized and the degree of fibrosis determined as a percent of field area of each digitized image using Image-Pro Plus V.7 (Media Cybernetics, Bethesda, Md., USA) then averaged to determine the level of fibrosis and/or fat content for each rat.

SHR [8] = experiment: Masson's tri-chrome stained sections of heart tissue (tissue architecture); assay type: in vivo, rat; conditions: treated rats versus control, FIG. 19
Source text: as §3

[9] = system: Human (HPCT-wt-05) renal proximal tubule cells; experiment: Cisplatin induced cell death, human renal proximal tubule cells (WST-8/CCK-8); assay type: cell-based; conditions: human renal proximal tubular cells; cisplatin 5 μg/ml; 32 μM or 63 μM of compound; 24 hours; FIG. 14
Description: as §2

SHR [10] = experiment: Myocardial fibrosis in SHR on 2.2% salt diet; assay type: in vivo, rat; conditions: 5% ethanol drinking solution, 500 pmol/kg/min for 4 weeks, compared to 14 and 18 week controls, FIG. 16
Source text: as §3

Compound: NC(CCc1cc(-c2ccccc2)ccc1-c1cccc(O)c1)C(F)(F)F (stereo not drawn) [A6, 2′-(3-Amino-4,4,4-trifluorobutyl)-1,1′:4′,1″-terphenyl-3-ol]
- Tissue architecture in portal tract sections (SHR [1]): normal tissue architecture has been restored
- Hepatic fibrosis (SHR [2]): decreased
- Cell impedance response (baseline normalized cell index) [3]: Negative impedance responses

Compound: O=C1NCCC1Cc1cc(-c2ccccc2)ccc1-c1cccc(O)c1 (stereo not drawn) [A26]
- Cell impedance response (baseline normalized cell index) [3]: Negative impedance responses

Compound: O=C1NCC/C1=C\c1cc(-c2ccccc2)ccc1-c1cccc(O)c1 [A27]
- Tissue architecture in portal tract sections (SHR [1]): normal tissue architecture has been restored
- Fat in the liver (SHR [4]): reduced
- Hepatic fibrosis (SHR [2]): decreased
- Cell impedance response (baseline normalized cell index) [3]: Negative impedance responses

Compound: O=C1CC(Cc2cc(-c3ccccc3)ccc2-c2cccc(O)c2)C(=O)N1 (stereo not drawn) [A30, 3-[(3-Hydroxy-1,1′:4′,1″-terphenyl-2′-yl)methyl]pyrrolidine-2,5-dione]
- Cell impedance response (baseline normalized cell index) [3]: Negative impedance responses

Compound: O=C1NC(=O)C(Cc2cc(-c3ccccc3)ccc2-c2cccc(O)c2)N1 (stereo not drawn) [A32, 5-((3-Hydroxy-[1,1′:4′,1″-terphenyl]-2′-yl)methyl)imidazolidine-2,4-dione]
- Tissue architecture in portal tract sections (SHR [1]): normal tissue architecture has been restored
- Plasma AST levels (SHR [5]): decreased
- Cisplatin induced cell death [6]: decreased
- Fibrosis in the kidney (SHR [7]): decreased
- Fat in the liver (SHR [4]): reduced
- Fibrous tissue and tissue architecture in heart sections (SHR [8]): minimal fibrous tissue is present and normal tissue architecture has been restored
- Hepatic fibrosis (SHR [2]): decreased
- Cisplatin induced cell death [9]: decreased
- Cell impedance response (baseline normalized cell index) [3]: Negative impedance responses
- Myocardial fibrosis (SHR [10]): decreased

Compound: Nc1nocc1Cc1cc(-c2ccccc2)ccc1-c1cccc(O)c1 [A35]
- Cell impedance response (baseline normalized cell index) [3]: Negative impedance responses

Compound: NOCCc1cc(-c2ccccc2)ccc1-c1cccc(O)c1 [A56, 2′-[2-(Aminooxy)ethyl]-1,1′:4′,1″-terphenyl-3-ol]
- Tissue architecture in portal tract sections (SHR [1]): normal tissue architecture has been restored
- Fat in the liver (SHR [4]): reduced
- Cell impedance response (baseline normalized cell index) [3]: Negative impedance responses

Compound: OCCc1cc(-c2ccccc2)ccc1-c1cccc(O)c1 [A56f, 2′-(2-Hydroxyethyl)-1,1′:4′,1″-terphenyl-3-ol]
- Tissue architecture in portal tract sections (SHR [1]): normal tissue architecture has been restored
- Plasma AST levels (SHR [5]): decreased
- Hepatic fibrosis (SHR [2]): decreased
- Cell impedance response (baseline normalized cell index) [3]: Negative impedance responses

Compound: O=C1c2ccccc2C(=O)N1OCCc1cc(-c2ccccc2)ccc1-c1cccc(O)c1 [A56g, 2-[2-(3-Hydroxy-1,1′:4′,1″-terphenyl-2′-yl)ethoxy]-1H-isoindole-1,3(2H)-dione]
- Cell impedance response (baseline normalized cell index) [3]: Negative impedance responses

Compound: O=C(O)Cc1cc(-c2ccccc2)ccc1-c1cccc(O)c1 [A56k, (3-Hydroxy-1,1′:4′,1″-terphenyl-2′-yl)acetic acid]
- Cell impedance response (baseline normalized cell index) [3]: Negative impedance responses

Compound: OCc1cc(-c2ccccc2)ccc1-c1cccc(O)c1 [A81]
- Cell impedance response (baseline normalized cell index) [3]: Negative impedance responses
